# US7642283B2, “Mitochrondrial permeability transition pore affinity labels and modulators” (Hoffmann-La Roche Inc., priority 2003, dated 2010)
# Experiments:
# [1] = test system: mitochondrial respiration; experiment: Mitochondrial respiration (oxygen consumption); format: biochemical; conditions: at concentrations completely blocking MPTP
# Procedure: Isolated liver mitochondria (˜0.5 mg protein ml^−1) were incubated in a batch mode in the presence of 20 nM [^3H]TPP ([^3H]Tetraphenylphosphonium ([^3H]TPP, 24-29 Ci/mmol) from Amersham Biosciences, Switzerland) for 15 min at 25° C. Aliquots (100 μl) of the mixture were then distributed into 96-well plates containing 100 μl of the test compound and the incubation prolonged for 15 min at 25° C. Samples were then filtered through 0.3% (v/v) polyethyleneimmine-treated GF/B glass fiber filters using a 96-channel cell harvester and the filters washed twice with 1 ml of buffer. Fifty μl of MICROSCINT 40 (Packard) were then added to each well, before counting for radioactivity in a TopCount scintillation counter (Packard). Non-specific uptake was determined in the presence of 1 mM unlabeled TPP or 1 μM carbonylcianide-p-trifluoromethoxyphenyl hydrazone (FCCP). Mitochondrial oxygen consumption was measured polarographically at 25° C. using a Clark-type electrode.
# Compounds found to inhibit MPTP where then counter-screened using uptake of the potentiometric probe [^3H]-TPP (Hoek, J. B., Nicholls, D. G. & Williamson, J. R. (1980) J. Biol. Chem. 255, 1458-1564) for determining in a semi-quantitative, but rapid way whether they interfered with mitochondrial respiration (e.g. protonophores). […]
# [2] = test system: MPTP; experiment: MPTP induced by phenylarsineoxide or ATR; format: biochemical
# [3] = target: T1, YVDAC1 (Saccharomyces cerevisiae, UniProt P04840); experiment: Affinity labeling of yeast mitochondria (Δpor1 and Δpor1 expressing YVDAC1); format: binding; conditions: Δpor1 yeast mitochondria expressing YVDAC1; increasing concentration
# T1 construct: expressed in transfected cells; host or cells: Δpor1 yeast strain carrying a YVDAC1 plasmid; isolated mitochondria
# T1 sequence (P04840 2-283): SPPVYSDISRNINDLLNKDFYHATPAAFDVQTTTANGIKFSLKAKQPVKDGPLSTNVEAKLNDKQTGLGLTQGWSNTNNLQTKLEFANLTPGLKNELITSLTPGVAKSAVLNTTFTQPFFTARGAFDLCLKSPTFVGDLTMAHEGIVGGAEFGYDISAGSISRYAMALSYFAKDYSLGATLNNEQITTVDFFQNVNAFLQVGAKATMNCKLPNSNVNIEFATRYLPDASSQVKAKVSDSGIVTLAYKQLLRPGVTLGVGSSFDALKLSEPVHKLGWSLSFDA
# Description: FIG. 9: Spiro[cyclopentane-1,5′-[5H]dibenzo[a,d]cyclohepten]-2-one,10′,11′-t2-10′,11′-dihydro-3-methylene affinity labeling of yeast mitochondria lacking the por1 gene for YVDAC1 (Δpor1) and into Δpor1 yeast mitochondria transfected with YVDAC1 in presence or absence of different concentrations of Spiro[cyclopentane-1,5′-[5H]dibenzo[a,d]cyclohepten]-2-one,10′,11′-dihydro-3-methylene (unlabeled). The fluorograms of gels after SDS-PAGE are shown. Mitochondria isolated from yeast strains were incubated in the presence of 10 nM Spiro[cyclopentane-1,5′-[5H]dibenzo[a,d]cyclohepten]-2-one,10′,11′-t2-10′,11′-dihydro-3-methylene for 15 min at 25° C. Numbers indicate the concentrations (μM) of the various compounds added.
# To further confirm VDAC1 as the protein target of Spiro[cyclopentane-1,5′-[5H]dibenzo[a,d]cyclohepten]-2-one,10′,11′-dihydro-3-methylene-, the labeling of proteins in mitochondria prepared from yeasts by Spiro[cyclopentane-1,5′-[5H]dibenzo[a,d]cyclohepten]-2-one,10′,11′-t2-10′,11′-dihydro-3-methylene- was investigated. […] Increasing concentration of unlabelled Spiro[cyclopentane-1,5′-[5H]dibenzo[a,d]cyclohepten]-2-one,10′,11′-dihydro-3-methylene-inhibited incorporation of the radioactivity (FIG. 9).
# [4] = target: T2, MPTP (Rattus norvegicus, UniProt Q9Z2L0); experiment: Ca2+-induced swelling in rat brain mitochondria; format: biochemical; conditions: 80 μM CaCl2; potency in the range of liver mitochondria
# T2 construct: other: n=2; glutamate/malate; other: glutamate/malate; 20 min; mean±SEM; unit not given; other: 300 nM; relieved by 50 μM Ub5
# Procedure: The effect of Spiro[cyclopentane-1,5′-[5H]dibenzo[a,d]cyclohepten]-2-one,10′,11′-dihydro-3-methylene- at inhibiting MPTP was also investigated in mitochondria isolated from rat forebrain. […] Due to the difficulties mentioned above, the effect of Spiro[cyclopentane-1,5′-[5H]dibenzo[a,d]cyclohepten]-2-one,10′,11′-dihydro-3-methylene- on MPTP in brain mitochondria was more accurately investigated by subjecting mitochondria isolated from rat forebrain to a series of Ca^2+ pulses (5 μM, ˜150 nmol mg protein^−1) and by monitoring extramitochondrial Ca^2+ or using fluororescent probes.
# T2 sequence (Q9Z2L0 2-283): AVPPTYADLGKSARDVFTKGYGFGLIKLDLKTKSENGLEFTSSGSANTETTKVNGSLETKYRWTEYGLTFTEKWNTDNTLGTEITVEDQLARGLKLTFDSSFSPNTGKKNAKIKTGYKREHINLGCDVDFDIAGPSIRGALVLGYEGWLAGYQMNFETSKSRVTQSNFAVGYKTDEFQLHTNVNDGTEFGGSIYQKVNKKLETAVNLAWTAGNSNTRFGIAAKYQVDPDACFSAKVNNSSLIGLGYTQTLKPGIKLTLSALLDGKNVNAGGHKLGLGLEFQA
structure (smiles),measurement,setting,value
"C=C1CCC2(C1=O)c1ccccc1CCc1ccccc12 [Spiro[cyclopentane-1,5′-[5H]dibenzo[a,d]cyclohepten]-2-one,10′,11′-dihydro-3-methylene-]","Inhibition of mitochondrial respiration (basal, ADP-induced and uncoupled)",[1],did not inhibit
same,Inhibition of MPTP induced by ATR,[2]; ATR 50 μM,inhibited
same,Inhibition of MPTP induced by phenylarsineoxide,[2]; phenylarsineoxide 25 μM,inhibited
same,Effect of unlabelled compound on incorporation of radioactivity,[3],inhibited
same,Inhibition of swelling in brain mitochondria,[4],inhibited
